Data set [1] in a line: Inhibition of TNFalpha-stimulated NFkappaB (unknown origin) expressed in mouse NIH-3T3-KBFLuc cells at 50 uM after 6 hrs by luciferase reporter gene assay relative to control. In kind it is cell-based. As to conditions: Homo sapiens.
The subject of data set [2] is SK-LU-1. In words: Antiproliferative activity against human SK-LU-1 cells at 50 uM after 48 hrs by sulforhodamine B assay relative to control. The class given is functional. The settings on record: for inhibition at 50 µM: SK-LU-1, 48 h. (In SRB staining, fixed cells bind dye roughly in proportion to their protein.)
In data set [3] the test system is PC-3. In words: Antiproliferative activity against human PC3 cells at 50 uM after 48 hrs by sulforhodamine B assay relative to control. The class given is functional. As to conditions: PC-3, 48 h.
Data set [4] concerns PC-3. The experiment in a line: Antiproliferative activity against human PC3 cells after 48 hrs by sulforhodamine B assay. In kind it is functional, cell-based. As to conditions: PC-3, 48 h.
For data set [5], the system named is HCT-15. The experiment in a line: Antiproliferative activity against human HCT15 cells at 50 uM after 48 hrs by sulforhodamine B assay relative to control. The class given is functional. The settings on record: HCT-15, 48 h.
In data set [6] the test system is U-251. In words: Antiproliferative activity against human U251 cells at 50 uM after 48 hrs by sulforhodamine B assay relative to control. In kind it is functional. As to conditions: U-251, 48 h.
In data set [7] the test system is MCF7. The experiment in a line: Antiproliferative activity against human MCF7 cells at 50 uM after 48 hrs by sulforhodamine B assay relative to control. In kind it is functional. The settings on record: MCF7, 48 h.
The test system of data set [8] is K562. In words: Antiproliferative activity against human K562 cells at 50 uM after 48 hrs by sulforhodamine B assay relative to control. In kind it is functional. The settings on record: K562, 48 h.
The target of data set [9] is T1, Nuclear factor erythroid 2-related factor 2 (Homo sapiens) (UniProt Q16236).
T1 sequence (whole entry): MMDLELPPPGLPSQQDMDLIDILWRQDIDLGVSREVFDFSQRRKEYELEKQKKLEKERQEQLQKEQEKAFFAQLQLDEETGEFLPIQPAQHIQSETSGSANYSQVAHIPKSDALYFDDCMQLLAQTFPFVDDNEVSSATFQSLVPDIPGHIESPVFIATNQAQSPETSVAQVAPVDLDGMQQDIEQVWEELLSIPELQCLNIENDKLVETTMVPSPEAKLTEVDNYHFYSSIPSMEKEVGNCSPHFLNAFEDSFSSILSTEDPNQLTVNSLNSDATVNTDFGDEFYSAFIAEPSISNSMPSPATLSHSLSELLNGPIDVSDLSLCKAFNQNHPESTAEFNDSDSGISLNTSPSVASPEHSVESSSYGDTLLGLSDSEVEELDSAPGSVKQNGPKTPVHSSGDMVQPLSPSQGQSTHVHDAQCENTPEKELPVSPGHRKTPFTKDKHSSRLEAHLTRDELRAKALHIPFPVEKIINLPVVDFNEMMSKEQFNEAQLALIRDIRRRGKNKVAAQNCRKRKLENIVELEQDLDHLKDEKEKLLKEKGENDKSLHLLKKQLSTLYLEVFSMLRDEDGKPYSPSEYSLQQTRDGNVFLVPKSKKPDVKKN
In words: Activation of Nrf2 in human HaCaT-ARE-Luc cells at 50 uM after 6 hrs by luciferase reporter gene assay relative to control. The class given is cell-based. Background: A reporter such as luciferase makes a cellular process visible.

Data set [10] has as its target Signal transducer and activator of transcription 3 (Homo sapiens) (UniProt P40763). The experiment in a line: Inhibition of IFNgamma-stimulated STAT3 (unknown origin) activation expressed in human HeLa cells at 50 uM after 6 hrs by luciferase reporter gene assay relative to control. The class given is cell-based.
For data set [11], the system named is HCT-15. The experiment in a line: Antiproliferative activity against human HCT15 cells after 48 hrs by sulforhodamine B assay. As to conditions: HCT-15, 48 h. In kind it is functional, cell-based.
Data set [12] in a line: Cytotoxicity against human gingival fibroblasts assessed as decrease in cell viability at 50 uM after 48 hrs by sulforhodamine B dye-based assay relative to control. The settings on record: gingival fibroblast.
Data set [13] has as its system K562. In words: Antiproliferative activity against human K562 cells after 48 hrs by sulforhodamine B assay. The class given is functional, cell-based. The settings on record: K562, 48 h.
The test system of data set [14] is SK-LU-1. In words: Antiproliferative activity against human SK-LU-1 cells after 48 hrs by sulforhodamine B assay. The class given is functional, cell-based. As to conditions: SK-LU-1, 48 h.
Data set [15] concerns U-251. The experiment in a line: Antiproliferative activity against human U251 cells after 48 hrs by sulforhodamine B assay. The class given is functional, cell-based. As to conditions: U-251, 48 h.
Data set [16] concerns MCF7. In words: Antiproliferative activity against human MCF7 cells after 48 hrs by sulforhodamine B assay. The class given is functional, cell-based. As to conditions: MCF7, 48 h.
A further data set relates to NIH3T3. The experiment in a line: Cytotoxicity against mouse NIH/3T3 cells infected with lentivirus encoding nuclear restricted red fluorescent protein assessed as reduction in cell viability up to 100 uM after 6 hrs by microscopic method. The class given is cell-based. As to conditions: nih3t3, 6 h.
Data set [17] can be described thus: Inhibition of TNFalpha-stimulated NFkappaB (unknown origin) expressed in mouse NIH-3T3-KBFLuc cells preincubated for 15 mins followed by TNFalpha stimulation for 6 hrs by luciferase reporter gene assay. The settings on record: Homo sapiens. In kind it is cell-based.

The source made the active and inactive calls. The rule behind the calls is not given here.

Signal transducer and activator of transcription 3 (Homo sapiens), sequence (P40763 whole entry): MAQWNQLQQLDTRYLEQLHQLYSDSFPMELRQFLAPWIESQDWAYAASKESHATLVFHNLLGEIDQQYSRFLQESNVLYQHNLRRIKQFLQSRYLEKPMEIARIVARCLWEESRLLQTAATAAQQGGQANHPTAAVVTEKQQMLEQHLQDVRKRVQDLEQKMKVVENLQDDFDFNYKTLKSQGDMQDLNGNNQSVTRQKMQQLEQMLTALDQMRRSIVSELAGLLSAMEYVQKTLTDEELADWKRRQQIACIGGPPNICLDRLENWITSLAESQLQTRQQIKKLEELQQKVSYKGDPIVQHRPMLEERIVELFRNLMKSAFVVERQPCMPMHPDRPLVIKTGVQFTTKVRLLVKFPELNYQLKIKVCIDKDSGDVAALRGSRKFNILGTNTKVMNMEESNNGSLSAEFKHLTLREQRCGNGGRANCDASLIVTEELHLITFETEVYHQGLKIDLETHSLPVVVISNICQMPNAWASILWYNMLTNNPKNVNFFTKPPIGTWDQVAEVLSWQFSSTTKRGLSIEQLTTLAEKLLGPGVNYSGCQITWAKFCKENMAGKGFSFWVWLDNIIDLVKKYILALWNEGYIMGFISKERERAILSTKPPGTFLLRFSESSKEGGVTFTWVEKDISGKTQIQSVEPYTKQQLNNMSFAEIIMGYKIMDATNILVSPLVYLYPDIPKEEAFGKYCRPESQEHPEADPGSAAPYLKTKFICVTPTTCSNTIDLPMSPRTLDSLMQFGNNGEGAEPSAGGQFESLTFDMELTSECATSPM

Regarding `Cc1cccc(C(=O)Oc2cc3c(C)ccc(C(C)C)c3cc2C)c1`, the figures for the inhibition in data set [1] and in data set [10] were 4.8% and 2%, respectively. Also, in the data set on SK-LU-1 [2], the inhibition (usually the relative decrease from the control value, in per cent) is “inactive”. Further, the inhibition at 50 µM in the data set on PC-3 [3] was 52.4%; in the data set on HCT-15 [5], 27.6%; with U-251 [6], 5.2%; in the data set with MCF7 [7], 50.4%; in the data set on K562 [8] it was 17.1%. It took 47.1 µM to reach half-maximal inhibition with PC-3 [4] (IC50). Further, the fold change (FC) in data set [9] was 1.8.
On to `Cc1cc2c(C(C)C)ccc(C)c2cc1OC(=O)c1ccc([N+](=O)[O-])cc1`, for which the inhibition in data set [1] was found to be 18.5%; in [10], 1.6%. The inhibition at 50 µM in the data set on SK-LU-1 [2] came out at 100%; in the data set with PC-3 [3] it was 100%; in the data set with HCT-15 [5], 97.6%; in the data set with U-251 [6], 100%; in the data set with MCF7 [7] it was 100%; in the data set on K562 [8], 100%. For the same compound, the IC50 (commonly the concentration that gives 50% inhibition) in the data set with PC-3 [4] stood at 17.6 µM; with HCT-15 [11], 7.88 µM; in the data set with K562 [13], 2.28 µM; in the data set on SK-LU-1 [14], 9.37 µM; in the data set with U-251 [15] it was 7.75 µM; in the data set with MCF7 [16] it was 7.9 µM. For the same compound, the Activity in data set [12] was 43.03%. For the same compound, the fold change (FC) in data set [9] turned out to be 1.8.
As to `Cc1cc2c(C(C)C)ccc(C)c2cc1OC(=O)c1ccc(Cl)cc1`, the figures for the inhibition in data set [1] and in data set [10] were 15.5% and 1.3%, respectively. The inhibition at 50 µM in the data set on SK-LU-1 [2] came out at 100%; in the data set with PC-3 [3] it was 81.1%; in the data set with HCT-15 [5] it was 82.2%; in the data set with U-251 [6], 92.8%; in the data set with MCF7 [7], 76%; with K562 [8], 95.4%. Further, the IC50 with PC-3 [4] worked out at 44 µM; in the data set on HCT-15 [11], 34 µM; in the data set on K562 [13], 19.1 µM; in the data set on SK-LU-1 [14], 23.9 µM; in the data set on U-251 [15], 35.5 µM; in the data set on MCF7 [16] it was 32.1 µM. The fold change (FC) in [9] amounted to 1.7.
Regarding `Cc1ccc(C(=O)Oc2cc3c(C)ccc(C(C)C)c3cc2C)cc1`, the inhibition was found to be 30.3% in data set [1] and 2.9% in data set [10]. In addition, the inhibition at 50 µM with SK-LU-1 [2] was 100%; in the data set with PC-3 [3], 72.3%; in the data set with HCT-15 [5] it was 86.5%; in the data set on U-251 [6] it was 100%; in the data set with MCF7 [7], 90.2%; with K562 [8], 100%. Moreover, the IC50 turned out to be 23.7 µM with PC-3 [4]; 12 µM in the data set with HCT-15 [11]; 8.37 µM with K562 [13]; 10.2 µM in the data set on SK-LU-1 [14]; 22.8 µM in the data set on U-251 [15]; 8.2 µM in the data set with MCF7 [16]. For the same compound, in [12], the Activity stood at 13.37%. Besides, the fold change (FC) in data set [9] was determined as 1.8.
`CC1=CC[C@H](C(C)C)c2cc(C)c(O)cc21`: the inhibition amounted to 50.8% in data set [1] and 2.1% in data set [10]. Besides, the Activity entry with NIH3T3 is given as “Non-Toxic”. Besides, the fold change (FC) in data set [9] was determined as 3.1. The compound further yielded an IC50 in data set [17] of 72 µM.
In the case of `Cc1cc2c(C(C)C)ccc(C)c2cc1OC(=O)c1ccc(C(F)(F)F)cc1`, the figures for the inhibition in data set [1] and in data set [10] were 5.2% and 0.9%, respectively. Moreover, the inhibition at 50 µM with SK-LU-1 [2] stood at 28.7%; with PC-3 [3] it was 100%; in the data set on HCT-15 [5] it was 55.6%; in the data set with U-251 [6], 16.5%; in the data set on MCF7 [7], 16.8%; in the data set on K562 [8] it was 45.1%. The compound further yielded a 50% inhibitory concentration (IC50) with PC-3 [4] of 34 µM. Moreover, the fold change (FC) in data set [9] was 1.7.

(Values after ChEMBL document CHEMBL4033638, “Effect of natural and semi-synthetic cadinanes from Heterotheca inuloides on NF-κB, Nrf2 and STAT3 signaling pathways and evaluation of their in vitro cytotoxicity in human cancer cell lines” (Bioorg Med Chem, 2017).)
